We go through 30 compounds from patent publication US10544150B2, “NK-3 receptor selective antagonist compounds, pharmaceutical composition and methods for use in NK-3 receptors mediated disorders” (Ogeda SA, priority 2010, dated 2020).

In the assay the target is human NK-3 receptor (Homo sapiens (Human), UniProt P29371). The experiment in a line: 3H-SB222200 binding competition assay with human NK-3 receptor. To be noted: 3H-SB222200 displacement, CHO cell membranes expressing human NK3 receptor; read-out: Ki range. A digest of the protocol: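 Radioligand displacement: 5 nM tritiated SB222200 competed by varying compound concentrations on recombinant CHO membranes bearing human NK3, buffer pH 7.4 with HEPES, NaCl, CaCl2, MgCl2, BSA and saponin. Filter-bound radioactivity quantified; calculated Ki given as ranges from +++ (<500 nM) to # (>5 μM).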
human NK-3 receptor, sequence (P29371 whole entry): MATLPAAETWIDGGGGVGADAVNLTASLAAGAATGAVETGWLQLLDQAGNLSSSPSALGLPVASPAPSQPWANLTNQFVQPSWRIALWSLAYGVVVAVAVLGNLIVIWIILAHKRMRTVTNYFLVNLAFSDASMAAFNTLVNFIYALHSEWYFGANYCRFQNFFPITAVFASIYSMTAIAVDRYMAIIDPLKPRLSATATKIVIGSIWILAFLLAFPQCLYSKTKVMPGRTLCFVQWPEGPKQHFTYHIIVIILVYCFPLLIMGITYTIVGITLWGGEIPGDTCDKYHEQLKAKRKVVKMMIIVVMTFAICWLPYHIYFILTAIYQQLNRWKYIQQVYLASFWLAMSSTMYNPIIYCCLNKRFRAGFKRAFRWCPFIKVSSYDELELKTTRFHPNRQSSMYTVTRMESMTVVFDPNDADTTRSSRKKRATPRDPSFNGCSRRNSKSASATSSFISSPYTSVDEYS

`Cc1cccc(-c2nnc3n2CCN(C(=O)c2ccc(-c4ccccc4)cc2)C3C)n1` (stereo not drawn) [Compound 286, [1,1′-biphenyl]-4-yl(8-methyl-3-(6-methylpyridin-2-yl)-5,6-dihydro-[1,2,4]triazolo[4,3-a]pyrazin-7(8H)-yl)methanone]: the Ki was less than 500 nM. Next, `O=C(c1cc(-c2ccc(Cl)cc2Cl)n[nH]1)N1CCn2c(nnc2-c2ccccn2)C1` [Compound 13, (3-(2,4-dichlorophenyl)-1H-pyrazol-5-yl)(3-(pyridin-2-yl)-5,6-dihydro-[1,2,4]triazolo[4,3-a]pyrazin-7(8H)-yl)methanone]: 1000 to 5000 nM; `O=C(c1ccc(-c2cccs2)cc1)N1CCn2c(nnc2-c2csc(N3CCCCC3)n2)C1` [Compound 247, (3-(2-(piperidin-1-yl)thiazol-4-yl)-5,6-dihydro-[1,2,4]triazolo[4,3-a]pyrazin-7(8H)-yl)(4-(thiophen-2-yl)phenyl)methanone]: less than 500 nM; `O=C(c1ccc(F)cc1)N1CCn2c(nnc2-c2cccc(N3CCCC3)n2)C1` [Compound 37, (4-fluorophenyl)(3-(6-(pyrrolidin-1-yl)pyridin-2-yl)-5,6-dihydro-[1,2,4]triazolo[4,3-a]pyrazin-7(8H)-yl)methanone]: less than 500 nM. In the case of `CC1c2nnc(-c3csc(-c4ccc(F)cc4)n3)n2CCN1C(=O)c1ccc(F)c(F)c1` (stereo not drawn) [Compound 110, (3,4-difluorophenyl)(3-(2-(4-fluorophenyl)thiazol-4-yl)-8-methyl-5,6-dihydro-[1,2,4]triazolo[4,3-a]pyrazin-7(8H)-yl)methanone] it was less than 500 nM. For `O=C(c1cnc(-c2ccccc2)nc1)N1CCn2c(nnc2-c2ccc3ccccc3n2)C1` [Compound 92, (2-phenylpyrimidin-5-yl)(3-(quinolin-2-yl)-5,6-dihydro-[1,2,4]triazolo[4,3-a]pyrazin-7(8H)-yl)methanone], the Ki lay in the range of 1000 to 5000 nM. With `O=C(c1ccc(-c2cccs2)cc1)N1CCn2c(nnc2-c2nc(-c3ccc(F)cc3)no2)C1` [Compound 176, (3-(3-(4-fluorophenyl)-1,2,4-oxadiazol-5-yl)-5,6-dihydro-[1,2,4]triazolo[4,3-a]pyrazin-7(8H)-yl)(4-(thiophen-2-yl)phenyl)methanone], the Ki is less than 500 nM. Next, `Cn1cc(-c2nnc3n2CCN(C(=O)c2ccc(-c4cccs4)cc2)C3)nc1-c1ccccc1` [Compound 252, (3-(1-methyl-2-phenyl-1H-imidazol-4-yl)-5,6-dihydro-[1,2,4]triazolo[4,3-a]pyrazin-7(8H)-yl)(4-(thiophen-2-yl)phenyl)methanone]: 500 to 1000 nM; `O=C(c1ccc(-c2cccs2)cc1)N1CCn2c(nnc2-c2csc(N3CCOCC3)n2)C1` [Compound 55, (3-(2-morpholinothiazol-4-yl)-5,6-dihydro-[1,2,4]triazolo[4,3-a]pyrazin-7(8H)-yl)(4-(thiophen-2-yl)phenyl)methanone]: less than 500 nM.

Turning to `O=C(c1ccc(F)cc1)N1CCn2c(nnc2-c2csc(Cc3ccc(Cl)cc3)n2)C1` [Compound 188, (3-(2-(4-chlorobenzyl)thiazol-4-yl)-5,6-dihydro-[1,2,4]triazolo[4,3-a]pyrazin-7(8H)-yl)(4-fluorophenyl)methanone], the Ki lay within 500 to 1000 nM. In the case of `C[C@@H]1c2nnc(-c3coc(-c4ccccc4)n3)n2CCN1C(=O)c1ccc(-c2ccccc2)cc1` [Compound 131, (R)-[1,1′-biphenyl]-4-yl(8-methyl-3-(2-phenyloxazol-4-yl)-5,6-dihydro-[1,2,4]triazolo[4,3-a]pyrazin-7(8H)-yl)methanone] it was less than 500 nM; in that of `O=C(c1ccc(F)cc1)N1CCn2c(nnc2-c2coc(-c3ccccc3)n2)C1` [Compound 47, (4-fluorophenyl)(3-(2-phenyloxazol-4-yl)-5,6-dihydro-[1,2,4]triazolo[4,3-a]pyrazin-7(8H)-yl)methanone], less than 500 nM.

As for `O=C(c1ccc(-c2cccs2)cc1)N1CCn2c(nnc2-c2nc(-c3ccccc3)ns2)C1` [Compound 211, (3-(3-phenyl-1,2,4-thiadiazol-5-yl)-5,6-dihydro-[1,2,4]triazolo[4,3-a]pyrazin-7(8H)-yl)(4-(thiophen-2-yl)phenyl)methanone], the Ki is less than 500 nM. Next, `O=C(c1ccc(-c2ccccc2)cc1)N1CCn2c(nnc2-c2csc(CS(=O)(=O)c3ccc(Cl)cc3)n2)C1` [Compound 199, [1,1′-biphenyl]-4-yl(3-(2-(((4-chlorophenyl)sulfonyl)methyl)thiazol-4-yl)-5,6-dihydro-[1,2,4]triazolo[4,3-a]pyrazin-7(8H)-yl)methanone]: 1000 to 5000 nM; `CC1(C)c2nnc(-c3csc(-c4ccccc4)n3)n2CCN1C(=O)c1ccc(F)cc1` [Compound 60, (8,8-dimethyl-3-(2-phenylthiazol-4-yl)-5,6-dihydro-[1,2,4]triazolo[4,3-a]pyrazin-7(8H)-yl)(4-fluorophenyl)methanone]: less than 500 nM; `Cc1ccc(-c2nc(-c3nnc4n3CCN(C(=O)c3ccc(F)cc3)C4)cs2)cc1` [Compound 190, (4-fluorophenyl)(3-(2-(p-tolyl)thiazol-4-yl)-5,6-dihydro-[1,2,4]triazolo[4,3-a]pyrazin-7(8H)-yl)methanone]: less than 500 nM. In the case of `O=C(c1ccc(-c2cccs2)cc1)N1CCn2c(nnc2-c2csc(-c3ccc(N4CCOCC4)cc3)n2)C1` [Compound 239, (3-(2-(4-morpholinophenyl)thiazol-4-yl)-5,6-dihydro-[1,2,4]triazolo[4,3-a]pyrazin-7(8H)-yl)(4-(thiophen-2-yl)phenyl)methanone] it was 1000 to 5000 nM; in that of `CN1CCN(c2ccc(-c3nc(-c4nnc5n4CCN(C(=O)c4ccc(-c6cccs6)cc4)C5)cs3)cc2)CC1` [Compound 241, (3-(2-(4-(4-methylpiperazin-1-yl)phenyl)thiazol-4-yl)-5,6-dihydro-[1,2,4]triazolo[4,3-a]pyrazin-7(8H)-yl)(4-(thiophen-2-yl)phenyl)methanone], less than 500 nM; in that of `Cc1nc(-c2ccccc2)sc1-c1nnc2n1CCN(C(=O)c1ccc(-c3ccccc3)cc1)C2C` (stereo not drawn) [Compound 72, [1,1′-biphenyl]-4-yl(8-methyl-3-(4-methyl-2-phenylthiazol-5-yl)-5,6-dihydro-[1,2,4]triazolo[4,3-a]pyrazin-7(8H)-yl)methanone], less than 500 nM. Next, `O=C(c1ccc(F)cc1)N1CCn2c(nnc2-c2csc(N3CCOCC3)n2)C1` [Compound 9, (4-fluorophenyl)(3-(2-morpholinothiazol-4-yl)-5,6-dihydro-[1,2,4]triazolo[4,3-a]pyrazin-7(8H)-yl)methanone]: less than 500 nM; `CC1c2nnc(-c3nc(-c4ccc(F)cc4)no3)n2CCN1C(=O)c1ccc(-c2cccs2)cc1` (stereo not drawn) [Compound 209, (3-(3-(4-fluorophenyl)-1,2,4-oxadiazol-5-yl)-8-methyl-5,6-dihydro-[1,2,4]triazolo[4,3-a]pyrazin-7(8H)-yl)(4-(thiophen-2-yl)phenyl)methanone]: less than 500 nM. As to `O=C(c1ccc(F)cc1)N1CCn2c(nnc2-c2csc(N3CCN(c4ccccc4)CC3)n2)C1` [Compound 34, (4-fluorophenyl)(3-(2-(4-phenylpiperazin-1-yl)thiazol-4-yl)-5,6-dihydro-[1,2,4]triazolo[4,3-a]pyrazin-7(8H)-yl)methanone], the Ki is less than 500 nM. For the compound `CC(C)CC(=O)N1CCn2c(nnc2-c2ccc3ccccc3n2)C1` [Compound 95, 3-methyl-1-(3-(quinolin-2-yl)-5,6-dihydro-[1,2,4]triazolo[4,3-a]pyrazin-7(8H)-yl)butan-1-one], the Ki was in the range of 1000 to 5000 nM. Next, `CC(C)Cc1nc(-c2nnc3n2CCN(C(=O)c2ccc(F)cc2)C3)cs1` [Compound 259, (4-fluorophenyl)(3-(2-isobutylthiazol-4-yl)-5,6-dihydro-[1,2,4]triazolo[4,3-a]pyrazin-7(8H)-yl)methanone]: 1000 to 5000 nM; `CS(=O)(=O)Nc1ccc(-c2nc(-c3nnc4n3CCN(C(=O)c3ccc(-c5cccs5)cc3)C4)cs2)cc1` [Compound 283, N-(4-(4-(7-(4-(thiophen-2-yl)benzoyl)-5,6,7,8-tetrahydro-[1,2,4]triazolo[4,3-a]pyrazin-3-yl)thiazol-2-yl)phenyl)methanesulfonamide]: 500 to 1000 nM; `COCCn1nc(-c2ccccc2)cc1-c1nnc2n1CCN(C(=O)c1ccc(F)cc1)C2` [Compound 255, (4-fluorophenyl)(3-(1-(2-methoxyethyl)-3-phenyl-1H-pyrazol-5-yl)-5,6-dihydro-[1,2,4]triazolo[4,3-a]pyrazin-7(8H)-yl)methanone]: 500 to 1000 nM. Next, `C[C@H]1c2nnc(-c3csc(-c4ccccc4)n3)n2CCN1C(=O)c1ccc(F)cc1` [Compound 167, (S)-(4-fluorophenyl)(8-methyl-3-(2-phenylthiazol-4-yl)-5,6-dihydro-[1,2,4]triazolo[4,3-a]pyrazin-7(8H)-yl)methanone]: 500 to 1000 nM; `C[C@H]1c2nnc(-c3ccc4ccccc4n3)n2CCN1C(=O)c1ccc(F)cc1` [Compound 162, (S)-(4-fluorophenyl)(8-methyl-3-(quinolin-2-yl)-5,6-dihydro-[1,2,4]triazolo[4,3-a]pyrazin-7(8H)-yl)methanone]: less than 500 nM; `O=C(c1ccc(F)cc1)N1CCn2c(-c3csc(-c4ccccc4)n3)nnc2C1CCO` (stereo not drawn) [Compound 51, (4-fluorophenyl)(8-(2-hydroxyethyl)-3-(2-phenylthiazol-4-yl)-5,6-dihydro-[1,2,4]triazolo[4,3-a]pyrazin-7(8H)-yl)methanone]: less than 500 nM. Regarding `CC1c2nnc(-c3csc(-c4ccc(F)cc4F)n3)n2CCN1C(=O)c1ccc(-c2cccs2)cc1` (stereo not drawn) [Compound 80, (3-(2-(2,4-difluorophenyl)thiazol-4-yl)-8-methyl-5,6-dihydro-[1,2,4]triazolo[4,3-a]pyrazin-7(8H)-yl)(4-(thiophen-2-yl)phenyl)methanone], the Ki was less than 500 nM.

The Ki is the equilibrium dissociation constant of an inhibitor or competing ligand from its target.
